In general, melting point refers to the temperature, or range, at which the solid turns liquid.

Regarding `CC1=C(C=NNC(N)=O)C(=O)C(C(C)C)C=C1` (stereo unspecified), the melting point was 221 to 222 °C. On to `O=C(C(=S)N1CCOCC1)c1ccccc1`, for which the melting point amounted to 75 °C.

`C/C=C/CCCCCCCC`: the melting point is -48.3 °C. For the compound `CC(C)C1=C(O)C(=O)C2=C(C1=O)C(O)CC1C(C)(C)CCCC21C` (stereo unspecified), the melting point is 214 °C. In turn, `CC(C)COC(=O)C(C)Oc1ccc(Oc2ccc(Cl)cc2)cc1` (stereo unspecified) had a melting point of 39.5 °C.

As to `CCOC(=O)CCCCCCCC(=O)OCC`, the melting point was -18.5 °C. In the case of `C[P+]([O-])(CCCCN1C(=O)c2ccccc2C1=O)OCCCCN1C(=O)c2ccccc2C1=O` (stereo unspecified) it was 114 °C; in that of `Cc1nc(-c2ccccc2)sc1C(=O)NN`, 168 to 170 °C. In the case of `CC(=O)OCCN(CCOC(C)=O)CCOC(C)=O` it was -40 °C; in that of `O=C1Cc2ccccc2C(=O)Cc2ccccc21`, 207 to 209 °C. In the case of `C[C@]12CCC(=O)C=C1CCC2=O` it was 55 to 64 °C; in that of `[N-]=[N+]=NC(=O)C=Cc1ccc(C=CC(=O)N=[N+]=[N-])cc1`, 80 °C.

Turning to `COc1ccccc1Oc1ccc(C(F)(F)F)cc1N`, the melting point was found to be 28 °C. For `Cc1cccc2ccoc12`, the melting point is 109 °C. In the case of `O=C(CCl)c1ccc(O)c(O)c1` it was 174 °C. Take `NNCc1ccccc1`: the melting point is 26 °C. In the case of `COc1ccc(-c2nnc3n2NC(c2ccc(N(C)C)cc2)S3)cc1` (stereo unspecified) it was 167 °C; in that of `Cc1cc([N+](=O)[O-])ccc1C(=O)O`, 154 °C; in that of `COCc1nnc(S)s1`, 77 to 79 °C. On to `COc1ccc2[nH]cc(CC(=O)O)c2c1`, for which the melting point fell in the range of 148 to 150 °C.

`COc1ccc(S(=O)(=O)Cl)cc1OC`: the melting point turned out to be 68 °C. In the case of `O=C(C(=S)Nc1ccc(Cl)cc1)c1ccccc1` it was 222 to 223 °C. In the case of `CCOC(=O)/C(C#N)=C/c1ccc(-c2ccc(Br)cc2)o1` it was 167 °C; in that of `CC(C)(C)OC(=O)N1OC1c1ccc(C#N)cc1` (stereo unspecified), 57 to 63 °C; in that of `COS(=O)(=O)c1ccc([N+](=O)[O-])cc1`, 94 °C. `CC(=O)c1c(O)c(C)c(O)c(Cc2c(O)c3c(c(C(=O)C=Cc4ccccc4)c2O)OC(C)(C)C=C3)c1O` gave a melting point of 212 °C.

As to `CCOC(O)C(Cl)(Cl)Cl` (stereo unspecified), the melting point is 56.5 °C. In the case of `CCCC(=O)Nc1ccc(OCC(O)CNC(C)C)c(C(C)=O)c1` (stereo unspecified) it was 119 °C. In the case of `NCc1ccc2occc2c1` it was 32 to 34 °C; in that of `CCN1CN(CC)CN(CC)C1`, 70 °C; in that of `Cn1c(C(=O)O)cc2occc21`, 200 °C.

With `N#Cc1cc(Br)cc(Br)c1N`, the melting point was 152 to 156 °C. In the case of `CC1=C(C)C(=O)C(C)=C(C)C1=O` it was 112 °C; in that of `Cn1c(/C(C#N)=N/Nc2cc(Cl)ccc2Cl)nc2ccccc21`, 245 °C. The compound `CCCCCCNC(=O)n1cc(F)c(=O)[nH]c1=O` showed a melting point of 110 °C. On to `Cc1ccc2cccc(Cl)c2n1`, for which the melting point came to 67 °C. In turn, `O=C1NN=C(C(F)(F)F)C1=NNc1cc(-c2ccccc2)n[nH]1` yielded a melting point of 271 °C. Compound `Fc1ccc2c3c([nH]c2c1)CNCC3` showed a melting point of 224 °C. In the case of `Cc1cc2c(o1)-c1c(oc3ccccc13)CCC2(C)c1ccccc1` (stereo unspecified) it was 135 °C; in that of `CCC1(c2ccccc2)C(=O)NCNC1=O`, 281 °C.

`O=C1OC(c2ccccc2)=N/C1=C/c1ccc(-c2ccccc2[N+](=O)[O-])o1` had a melting point of 210 °C. In the case of `COc1ccc(C2Nn3c(nnc3-c3ccccc3)S2)cc1` (stereo unspecified) it was 160 °C; in that of `Nc1c(C(=O)O)ccc2c1C(=O)c1ccccc1C2=O`, 296 °C. In the case of `N#Cc1cc(F)c(F)cc1Cl` it was 35 °C; in that of `CC1CSC(C=Cc2ccccc2[N+](=O)[O-])S1` (stereo unspecified), 70 °C. `COC(=O)CCCCCCC(=O)OC`: the melting point was -3.1 °C.

With `CC#CC1(O)CCCCC1`, the melting point came out at 48 °C. Compound `c1ccc2nnccc2c1` returned a melting point of 38 °C.

On to `Fc1ccc(Br)c2ccccc12`, for which the melting point was 35 °C.

`O=C(SSC(=O)c1ccccc1)c1ccccc1` showed a melting point of 134 °C.

`O=[N+]([O-])c1ccccc1C(O)C(O)c1ccccc1` (stereo unspecified) came in with a melting point of 100 °C. The compound `NC(=O)c1cc(Cl)cc(Cl)c1N` displayed a melting point of 162 °C. In the case of `O=C=Nc1ccccc1` it was -31.3 °C; in that of `Clc1ccc(OCCCCBr)cc1`, 30 to 31 °C; in that of `CCOC(=O)C(O)c1ccccc1` (racemic), 37 °C. In the case of `Cc1nc(-c2cnccn2)sc1C(=O)Cl` it was 101 °C. In the case of `O=Cc1cc(Cl)cc(Cl)c1[N+](=O)[O-]` it was 91 °C. Regarding `c1coc(P(c2ccco2)c2ccco2)c1`, the melting point amounted to 62 °C. Compound `CCCCC(CC)COP(=O)(Oc1ccccc1)Oc1ccccc1` (stereo unspecified) gave a melting point of -54 °C. With `CCOC(=O)C(=O)C=P(c1ccccc1)(c1ccccc1)c1ccccc1`, the melting point was 176 °C. `Cc1ccc2c(c1)C1C(C3C2C2(Cl)C(Cl)=C(Cl)C3(Cl)C2(Cl)Cl)C2(Cl)C(Cl)=C(Cl)C1(Cl)C2(Cl)Cl` (stereo unspecified): the melting point is 160 to 165 °C. In the case of `C=C(NC(C)=O)C(=O)OC` it was 50 °C. In turn, `Cc1cc(C)c(Cc2cnc(NC3=NCCN3)s2)c(C)c1` registered a melting point of 192 to 194 °C.

`Cc1ccc(Cl)c(C)c1` returned a melting point of -32.5 °C. In the case of `Cc1nc(N)nc(O)n1` it was 300 °C; in that of `CC(=O)Nc1ccc(-c2cc(C(=O)O)c3ccccc3n2)cc1`, 274 to 276 °C; in that of `CCOC(=O)C(F)(F)F`, -78 °C. In the case of `CCCCCCCCCOc1ccc(N)cc1` it was 39 °C; in that of `Cc1ccc(NC(=O)C=Cc2ccc(C=CC(=O)Nc3ccc(C)cc3)cc2)cc1`, 315 °C; in that of `Clc1ncnc2scc(-c3cccs3)c12`, 110 to 112 °C. In the case of `COc1c(OC)c(OC(C)=O)c2cc(Br)ccc2c1OC(C)=O` it was 102 °C; in that of `N#Cc1cccc(C(=O)Cl)c1`, 38 to 44 °C; in that of `c1ccc(-c2coc(-c3ccccc3)n2)cc1`, 103 °C. `c1cc(CCCc2ccncc2)ccn1` yielded a melting point of 55 °C. Regarding `O=C(Cl)c1ccc2nccnc2c1`, the melting point came out at 119 °C. In the case of `CCCC1CC(C(=O)NC(C(C)O)C2OC(SC)C(O)C(O)C2O)N(C)C1` (stereo unspecified) it was 295 °C; in that of `CNCC(O)c1cccc(O)c1` (stereo unspecified), 170 °C; in that of `c1cc(OCC2CO2)ccc1OCC1CO1` (stereo unspecified), 111 °C. `COC(=O)c1ccc2cc(OC)ccc2c1` showed a melting point of 130 °C. For `CCC1(c2ccc(N)cc2)CCC(=O)NC1=O` (stereo unspecified), the melting point stood at 150 °C. In the case of `CC(=O)c1ccccc1NC=O` it was 65 to 68 °C; in that of `Cc1ccc2c(O)c(-c3ccccc3)c(=O)[nH]c2c1`, 300 °C. Take `O=Cc1ccccc1N1CCN(Cc2ccccc2)CC1`: the melting point was 58 to 60 °C. In the case of `Cc1c(Br)c(Br)c(Br)c(Br)c1Br` it was 288 °C. `O=C(C=CN(O)c1ccccc1)c1ccc2c(c1)CCCC2` showed a melting point of 148 °C.

Turning to `CCOC(=O)NN(C(=O)OCC)c1c(-c2ccccc2)nc2n1CCS2`, the melting point is 179 to 180 °C. Turning to `Cc1c(C(=O)O)sc2sc(C(=O)O)c(C)c12`, the melting point came out at 360 °C.

Consider `COc1ccc2ccccc2c1Br`, for which the melting point was 80 °C. As for `O=C1CSC2(CCN(CCCN3c4ccccc4Sc4ccc(Cl)cc43)CC2)N1`, the melting point stood at 155 °C.

In turn, `Cc1c(C)c(C)c2c(c1C)CC2(C)O` (stereo unspecified) registered a melting point of 90 °C. In the case of `c1cnc2cccnc2c1` it was 75 °C; in that of `BrCCOc1ccccc1`, 39 °C; in that of `CC(=O)c1sc(-c2ccc(C(C)(C)C)cc2)cc1N`, 179 to 181 °C.

In turn, `CC(=O)Oc1c(-c2cccc(-c3[nH]c4cc([N+](=O)[O-])ccc4c3OC(C)=O)c2)[nH]c2cc([N+](=O)[O-])ccc12` registered a melting point of 304 °C.

In the case of `Cc1cc2c(c(=O)n1Cc1ccccc1)C(c1ccccc1)C(C#N)=C(N)O2` (stereo unspecified), the melting point was in the range of 275 to 277 °C. In the case of `NCCN(CCN)CCN` it was -16 °C; in that of `CCCCc1c(C)nc(N)nc1O`, 273 to 275 °C; in that of `Cc1cc(CO)nn1C`, 50 to 51 °C. In the case of `COc1ccc(C(=O)C2=NOC3C(=O)N(c4cc(Cl)ccc4Cl)C(=O)C23)cc1` (stereo unspecified) it was 147 °C; in that of `C=CCOC(Cn1ccnc1)c1ccc(Cl)cc1Cl` (stereo unspecified), 52.7 °C; in that of `Cc1nc(CC(=O)O)c(C)s1`, 110 to 113 °C. In the case of `CCC(C)c1cccc(C(C)CC)c1O` (stereo unspecified) it was -42 °C. Turning to `Cc1n[nH]c(C)c1C(C)(C)C`, the melting point came to 104 °C.

`O=C(O)c1cnc(O)nc1-c1ccncc1`: the melting point was in the range of 309 to 310 °C. Take `COC(=O)CCC(C)C1CCC2C3C(=O)CC4CC(=O)CCC4(C)C3CC(=O)C12C` (stereo unspecified): the melting point was in the range of 242 to 243 °C. `Oc1cccnc1Br` came in with a melting point of 185 to 188 °C. The compound `Cn1nnc2cc(CO)ccc21` had a melting point of 94 to 96 °C. In the case of `OCc1ccc(-c2ccco2)cc1` it was 85 to 86 °C; in that of `CCCCCCCCCCCCN`, 28.3 °C. In the case of `N#Cc1c(F)cc(Cl)cc1F` it was 102 °C; in that of `O=C(OCc1ccccc1)c1ccc(O)cc1`, 112 °C.

The record behind these values is a melting point compilation (Tetko et al.).
